The values below come from PMC6720901, “Psoromic Acid, a Lichen-Derived Molecule, Inhibits the Replication of HSV-1 and HSV-2, and Inactivates HSV-1 DNA Polymerase: Shedding Light on Antiherpetic Properties” (Molecules, 2019).

Read-outs that look alike come from different tables or passages of the source. Bounds are passed on as bounds.

One data set concerns HSV-1 strain KOS. As to the kind of experiment: Anti-HSV-1 plaque reduction assay in infected Vero cells. In kind it is cell-based, herpes simplex virus type 1 (HSV-1). The following applies: for IC50: 72 h; for SI (CC50/IC50): selectivity index, Vero CC50 / HSV-1 IC50. The method, then:
Vero cells were infected with HSV-1 strain KOS (an ACV-sensitive strain) obtained from MUH, Prague, Czech Republic and propagated in Vero cells. Viral stocks were then titrated based on plaque forming unit (PFU) count by plaque assay as previously described. Viral stocks were stored at −80^◦C for further use.
The inhibitory activity against the replication of HSV-1 was evaluated using a plaque reduction assay as previously described. ACV was used as a reference drug. Briefly, cell monolayers were infected with 100 PFU of HSV-1 in MEM containing 1.5% carboxymethyl cellulose (CMC, Sigma-Aldrich, Berlin, Germany) in the presence or absence of test compounds at different concentrations. Afterward, the cells were subjected to incubation for 72 h at 37 °C, then fixed and stained using naphthol blue-black (Sigma-Aldrich, Berlin, Germany). Subsequently, the plaques were counted. IC50 values (concentrations of test compounds required to decrease the number of plaques by 50%) were determined as compared with untreated control cells. A selectivity index (SI) value was calculated as the ratio CC50/IC50.

The nature of data set [1]: Cytotoxicity on Vero cells by neutral red dye-uptake assay. The class given is cell-based. The following applies: African green monkey, Vero cell monolayers, neutral red dye uptake (Table 1). The method, then: The cytotoxic effect of standard PA (purity >98%; kindly obtained from University of Chemistry and Technology Prague, Prague, Czech Republic), PA in combination with ACV (Sigma-Aldrich, Berlin, Germany) as well as standard ACV on Vero cells was assessed using the neutral red dye-uptake assay as previously described with slight modification. Briefly, the test compounds were dissolved in 0.2% dimethyl sulfoxide (DMSO). Further, stock solutions were prepared in deionized water and sterilized at a concentration of 620 μM. Vero cell monolayers cultivated in 96-well microtiter plates with two-fold serial dilutions of the test compounds were incubated for 48 h at 37°C in 5% CO2. After incubation, the morphological alterations of the treated cells were assessed using an inverted optical microscope (Leitz, Wetzlar, Germany) and the maximum non-toxic concentrations (MNTC) were determined. The concentrations of test substances that are necessary to decrease the cell viability by 50% (CC50) were assessed as compared with the untreated control cells. In order to acquire statistically relevant data for final evaluation, the cytotoxicity of test compounds was measured in at least three independent experiments conducted in duplicate.

In another data set the target is T1, HSV-1 DNA polymerase (Human herpesvirus 1, UniProt P04292).
T1 construct: HSV-1 DNA polymerase was extracted from HSV-1-infected Vero cells; made in house; host or cells: Vero cells infected with HSV-1 (KOS strain); virus-encoded native enzyme, purified on DEAE-cellulose and phosphate cellulose columns
Briefly: Radiolabeled nucleotide-based HSV-1 DNA polymerase inhibition assay. The class given is biochemical. Conditions: for type of inhibition: ascertained with Cheng–Prusoff equation; for IC50: 37 °C, 30 min; for Ki: calculated by Cheng–Prusoff equation. As for the experimental part:
HSV-1 DNA polymerase was extracted from HSV-1-infected Vero cells following the procedure as previously designated. Briefly, Vero cells were infected with HSV-1 (KOS strain) at a multiplicity of infection (MOI) equal to 5.0 for 12 h. Afterward, the infected cells were lysed with a buffer containing 0.25 M potassium phosphate (pH = 7.5), 10 mM 2-mercaptoethanol (2-ME), 1mM EDTA, 0.5% Triton X-100, 0.5 mM phenylmethane sulfonylfluoride (PMSF), and 20% glycerol, and subsequently sonicated and centrifuged at 10,000× g for 10 min at 4 °C. The resulting supernatant was additionally centrifuged at 100,000× g for 90 min at 4 °C and the supernatant was dialyzed against 10 mM potassium phosphate (pH = 7.5) with 10 mM 2-ME, 1mM EDTA, and 20% glycerol. Then, the obtained material was eluted in two ion-exchange chromatography columns (DEAE-cellulose and phosphate cellulose) (Sigma-Aldrich, Prague, Czech Republic) supplemented with potassium phosphate ([…]) as previously described.
Extracted HSV-1 DNA polymerase was evaluated for its purity and possible contamination with cellular enzymes such as type B DNA polymerase (α and δ polymerases) using polyclonal antibodies raised against these cellular enzymes following the procedure as previously described. The confirmation of the purity of HSV-1 DNA polymerase was achieved by using a kinetic assay in the presence or absence of ammonium sulfate (100 mM; an inhibitor of possible contaminant cellular polymerases) following the previously reported protocol.
A radiolabeled nucleotide-based assay was used to evaluate the inhibitory properties of PA along with the standard drugs aphidicolin (a known competitive inhibitor of HSV-1 DNA polymerase with respect to dTTP incorporation; purchased from Sigma-Aldrich, Prague, Czech Republic with purity ≥98%) and ACV triphosphate (ACV-TP) (a known competitive inhibitor of HSV-1 DNA polymerase with respect to dGTP incorporation; obtained from Sierra Bioresearch (Tucson, AZ, USA) with purity >98%) against HSV-1 DNA polymerase based on the incorporation of dTTP as a substrate with some modifications. Briefly, the enzyme assay was performed following the first-order kinetics conditions, where the enzymatic reaction initiated by pre-incubating 3 U/mL of HSV-1 DNA polymerase with a mixture containing 50 mM Tris-HCl (pH = 8), MgCl2 (8 mM), DTT (0.5 mM), bovine serum albumin (0.5 µg/mL), ammonium sulfate (100 mM; an inhibitor of possible contaminant cellular polymerases), 100 µM of each nucleotide (dATP, dGTP, dCTP, and [^3H]-dTTP—0.5 µCi/nmol) (obtained from MUH, Prague, Czech Republic) and activated salmon-sperm DNA (12 µg/mL). […] [^3H]-dGTP—0.5 µCi/nmol (obtained from MUH, Prague, Czech Republic) was used when the enzymatic assay was performed with ACV-TP.
The obtained mixture was further incubated with the test compounds (at concentrations ranging from 0.1 to 3 µM) at 37 °C for 30 min and afterward, the reaction was stopped by adding trichloroacetic acid (TCA; 10%). The resulting radioactivity was adsorbed over GF/C fiberglass membranes (Whatman; Sigma-Aldrich, Berlin, Germany) and counted by liquid scintillation (Tri-Carb 2600, Packard Inc., Downers Grove, IL, USA). All measurements were conducted in triplicate and IC50 values were calculated by nonlinear regression. Ki values (inhibition constant; concentration required to produce half maximum inhibition) were calculated using the Cheng–Prusoff equation as previously described.

T1 sequence (P04292 whole entry): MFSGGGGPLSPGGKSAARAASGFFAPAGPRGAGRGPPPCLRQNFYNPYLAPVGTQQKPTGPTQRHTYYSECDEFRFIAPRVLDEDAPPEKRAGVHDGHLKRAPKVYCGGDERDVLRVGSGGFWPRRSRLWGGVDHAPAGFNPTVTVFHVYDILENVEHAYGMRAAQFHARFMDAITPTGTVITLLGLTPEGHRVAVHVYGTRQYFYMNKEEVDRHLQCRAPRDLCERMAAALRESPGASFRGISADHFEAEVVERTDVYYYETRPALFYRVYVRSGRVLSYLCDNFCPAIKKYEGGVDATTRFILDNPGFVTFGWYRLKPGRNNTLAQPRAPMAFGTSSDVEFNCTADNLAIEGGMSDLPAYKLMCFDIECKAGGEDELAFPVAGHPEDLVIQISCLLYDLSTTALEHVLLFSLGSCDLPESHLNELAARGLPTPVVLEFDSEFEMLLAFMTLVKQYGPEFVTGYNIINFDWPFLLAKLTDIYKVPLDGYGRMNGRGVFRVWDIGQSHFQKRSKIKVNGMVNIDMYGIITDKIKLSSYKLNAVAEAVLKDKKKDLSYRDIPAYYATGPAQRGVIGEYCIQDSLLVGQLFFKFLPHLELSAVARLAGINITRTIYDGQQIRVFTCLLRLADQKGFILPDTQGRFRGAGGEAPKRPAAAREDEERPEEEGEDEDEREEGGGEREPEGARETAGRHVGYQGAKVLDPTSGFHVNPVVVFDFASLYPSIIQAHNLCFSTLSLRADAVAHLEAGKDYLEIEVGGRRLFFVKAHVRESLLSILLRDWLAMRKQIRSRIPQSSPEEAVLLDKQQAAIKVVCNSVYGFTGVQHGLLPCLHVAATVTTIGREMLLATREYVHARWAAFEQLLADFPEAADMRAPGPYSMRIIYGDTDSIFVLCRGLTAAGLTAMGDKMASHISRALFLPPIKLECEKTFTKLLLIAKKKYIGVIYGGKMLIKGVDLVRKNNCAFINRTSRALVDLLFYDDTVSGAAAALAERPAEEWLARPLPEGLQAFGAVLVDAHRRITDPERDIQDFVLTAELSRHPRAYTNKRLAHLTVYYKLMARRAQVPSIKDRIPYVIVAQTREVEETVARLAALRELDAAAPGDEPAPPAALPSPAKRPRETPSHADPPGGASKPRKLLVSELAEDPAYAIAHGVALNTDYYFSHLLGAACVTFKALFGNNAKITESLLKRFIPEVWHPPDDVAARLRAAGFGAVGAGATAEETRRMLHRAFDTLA

Take `Nc1nc2c(ncn2COCCO)c(=O)[nH]1` [ACV, acyclovir]: the half-maximal inhibitory concentration (IC50) (as a rule, the concentration at which inhibition is half-maximal) in the data set with HSV-1 strain KOS (Human alphaherpesvirus 1, HSV-1 replication, plaque reduction, Vero cells, read-out: IC50) worked out at 2600 ± 380 nM. Also, the “SI (CC50/IC50)” value in the data set on HSV-1 strain KOS is >119.2. The CC50 (usually the concentration at which the toxic effect on the cells reaches its halfway point) at 48 h in data set [1] was > 310000 nM.

In the case of `Nc1nc2c(ncn2COCCOP(=O)(O)OP(=O)(O)OP(=O)(O)O)c(=O)[nH]1` [ACV-TP, acyclovir triphosphate], at HSV-1 DNA polymerase, the type of inhibition entry is recorded as “competitive inhibitors”. Further, at HSV-1 DNA polymerase (with respect to dGTP incorporation ([3H]-dGTP)), the 50% inhibitory concentration (IC50) is 900 ± 630 nM. Also, the inhibition constant Ki (in general, the equilibrium dissociation constant of an inhibitor or competing ligand from its target) at HSV-1 DNA polymerase (with respect to dGTP incorporation) was 500 ± 340 nM.

On to `COc1cc(C(=O)O)c2c(c1C)OC(=O)c1c(C)cc(O)c(C=O)c1O2` [PA, Psoromic acid], for which the 50% inhibitory concentration (IC50) was 1900 ± 420 nM in the data set on HSV-1 strain KOS (Human alphaherpesvirus 1, Vero) and 700 ± 510 nM at HSV-1 DNA polymerase (with respect to dTTP incorporation ([3H]-dTTP)). Further, in the data set with HSV-1 strain KOS, the “SI (CC50/IC50)” value was >163.2. Further, the half-maximal cytotoxic concentration (CC50) at 48 h in data set [1] is > 310000 nM. Also, the type of inhibition result at HSV-1 DNA polymerase is given as “competitive inhibitors”. The inhibitory constant (Ki) on HSV-1 DNA polymerase (with respect to dTTP incorporation) was 300 ± 420 nM.
